According to the kinase profiling compilation of Christmann-Franck et al. (2016):

Columns and labels:
Experiment in all cases: radiometric filter-binding kinase assay, Kinase HotSpot
Details in all cases: compound 0.5 µM; ATP 10 µM
CAMK1G (human) = CAMK1G (human) (UniProt Q96NX5)
RPS6KA5 KD2 (human) = RPS6KA5 KD2 (human) (UniProt O75582)
CSF1R (human) = CSF1R (human) (UniProt P07333)
PLK2 (human) = PLK2 (human) (UniProt Q9NYY3)
HIPK1 (human) = HIPK1 (human) (UniProt Q86Z02)
MAP4K5 (human) = MAP4K5 (human) (UniProt Q9Y4K4)
CLK1 (human) = CLK1 (human) (UniProt P49759)
FYN (human) = FYN (human) (UniProt P06241)
MERTK (human) = MERTK (human) (UniProt Q12866)
CAMK2G (human) = CAMK2G (human) (UniProt Q13555)
FGFR2 (human) = FGFR2 (human) (UniProt P21802)
GSK3A (human) = GSK3A (human) (UniProt P49840)
CDK6 CCND1 (human) = CDK6 CCND1 (human) (UniProt Q00534+P24385)
CDK7 CCNH MNAT1 (human) = CDK7 CCNH MNAT1 (human) (UniProt P50613+P51948+P51946)
CSNK1A1 (human) = CSNK1A1 (human) (UniProt P48729)
DYRK1A (human) = DYRK1A (human) (UniProt Q13627)
SRC (human) = SRC (human) (UniProt P12931)
ABL1 (human) = ABL1 (human) (UniProt P00519)
RPS6KA4 KD2 (human) = RPS6KA4 KD2 (human) (UniProt O75676)
SRMS (human) = SRMS (human) (UniProt Q9H3Y6)
ACVRL1 (human) = ACVRL1 (human) (UniProt P37023)
TSSK2 (human) = TSSK2 (human) (UniProt Q96PF2)
MAP3K10 (human) = MAP3K10 (human) (UniProt Q02779)
NEK11 (human) = NEK11 (human) (UniProt Q8NG66)
CDK6 CCND3 (human) = CDK6 CCND3 (human) (UniProt P30281+Q00534)
PTK6 (human) = PTK6 (human) (UniProt Q13882)
WNK2 (human) = WNK2 (human) (UniProt Q9Y3S1)
CDK9 CCNK (human) = CDK9 CCNK (human) (UniProt O75909+P50750)
CAMK2D (human) = CAMK2D (human) (UniProt Q13557)
MAP2K2 (human) = MAP2K2 (human) (UniProt P36507)
PTK2B (human) = PTK2B (human) (UniProt Q14289)
TAOK2 (human) = TAOK2 (human) (UniProt Q9UL54)
EPHB4 (human) = EPHB4 (human) (UniProt P54760)
TEC (human) = TEC (human) (UniProt P42680)
EPHA4 (human) = EPHA4 (human) (UniProt P54764)
CDK3 CCNE1 (human) = CDK3 CCNE1 (human) (UniProt Q00526+P24864)
RPS6KA2 KD1 KD2 (human) = RPS6KA2 KD1 KD2 (human) (UniProt Q15349)
BRSK2 (human) = BRSK2 (human) (UniProt Q8IWQ3)
SLK (human) = SLK (human) (UniProt Q9H2G2)
NEK4 (human) = NEK4 (human) (UniProt P51957)
MAP3K2 (human) = MAP3K2 (human) (UniProt Q9Y2U5)

Chain of MERTK (human) (Q12866 whole entry, looked up): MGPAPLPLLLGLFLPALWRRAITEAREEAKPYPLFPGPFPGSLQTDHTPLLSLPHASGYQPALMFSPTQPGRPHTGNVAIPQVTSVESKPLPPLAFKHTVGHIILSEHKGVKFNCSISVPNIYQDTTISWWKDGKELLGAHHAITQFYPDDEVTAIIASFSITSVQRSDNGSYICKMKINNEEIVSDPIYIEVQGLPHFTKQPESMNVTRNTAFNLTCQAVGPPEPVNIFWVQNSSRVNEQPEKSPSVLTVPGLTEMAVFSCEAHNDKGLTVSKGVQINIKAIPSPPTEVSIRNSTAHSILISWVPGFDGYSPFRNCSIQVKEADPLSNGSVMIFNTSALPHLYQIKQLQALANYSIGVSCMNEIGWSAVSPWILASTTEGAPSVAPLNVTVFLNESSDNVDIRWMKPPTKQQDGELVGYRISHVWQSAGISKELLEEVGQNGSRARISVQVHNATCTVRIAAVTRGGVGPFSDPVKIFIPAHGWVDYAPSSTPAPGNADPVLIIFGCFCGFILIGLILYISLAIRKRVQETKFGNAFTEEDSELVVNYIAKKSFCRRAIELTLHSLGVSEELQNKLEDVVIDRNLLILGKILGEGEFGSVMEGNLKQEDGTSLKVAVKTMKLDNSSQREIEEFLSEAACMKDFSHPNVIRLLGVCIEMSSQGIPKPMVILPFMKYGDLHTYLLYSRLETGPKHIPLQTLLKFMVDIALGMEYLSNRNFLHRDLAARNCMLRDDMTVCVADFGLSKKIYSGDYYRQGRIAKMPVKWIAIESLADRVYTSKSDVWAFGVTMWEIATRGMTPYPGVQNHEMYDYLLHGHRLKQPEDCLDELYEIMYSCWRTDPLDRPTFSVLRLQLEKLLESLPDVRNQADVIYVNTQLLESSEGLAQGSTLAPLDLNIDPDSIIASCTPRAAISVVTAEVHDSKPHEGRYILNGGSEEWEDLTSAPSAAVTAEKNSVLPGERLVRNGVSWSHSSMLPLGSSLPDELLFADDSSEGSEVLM
Chain of MAP3K10 (human) (Q02779 whole entry, looked up): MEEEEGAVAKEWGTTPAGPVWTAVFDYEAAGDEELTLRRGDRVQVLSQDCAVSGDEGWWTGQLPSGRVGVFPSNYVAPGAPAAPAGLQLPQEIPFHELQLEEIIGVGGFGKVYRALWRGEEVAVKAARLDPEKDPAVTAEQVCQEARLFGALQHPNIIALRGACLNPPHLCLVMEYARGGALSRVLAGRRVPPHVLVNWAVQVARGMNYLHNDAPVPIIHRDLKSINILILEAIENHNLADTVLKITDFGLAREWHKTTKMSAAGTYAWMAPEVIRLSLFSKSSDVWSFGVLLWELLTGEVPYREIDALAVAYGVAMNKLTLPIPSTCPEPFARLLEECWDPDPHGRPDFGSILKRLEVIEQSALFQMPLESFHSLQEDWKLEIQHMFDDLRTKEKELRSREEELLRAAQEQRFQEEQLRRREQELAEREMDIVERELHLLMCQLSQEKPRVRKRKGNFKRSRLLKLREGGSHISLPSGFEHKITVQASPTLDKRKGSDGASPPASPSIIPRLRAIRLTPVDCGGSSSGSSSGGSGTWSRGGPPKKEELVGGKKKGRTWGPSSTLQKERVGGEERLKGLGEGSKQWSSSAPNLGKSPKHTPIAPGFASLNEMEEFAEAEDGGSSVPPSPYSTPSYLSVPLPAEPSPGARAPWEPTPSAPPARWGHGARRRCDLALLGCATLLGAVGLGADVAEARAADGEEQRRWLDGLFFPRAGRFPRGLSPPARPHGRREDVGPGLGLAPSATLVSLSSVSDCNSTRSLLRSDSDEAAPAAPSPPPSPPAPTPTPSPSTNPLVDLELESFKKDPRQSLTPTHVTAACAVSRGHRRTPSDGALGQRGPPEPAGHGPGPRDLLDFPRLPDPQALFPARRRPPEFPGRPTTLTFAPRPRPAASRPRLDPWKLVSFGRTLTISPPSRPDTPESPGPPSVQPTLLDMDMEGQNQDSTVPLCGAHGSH
Chain of TSSK2 (human) (Q96PF2 whole entry, looked up): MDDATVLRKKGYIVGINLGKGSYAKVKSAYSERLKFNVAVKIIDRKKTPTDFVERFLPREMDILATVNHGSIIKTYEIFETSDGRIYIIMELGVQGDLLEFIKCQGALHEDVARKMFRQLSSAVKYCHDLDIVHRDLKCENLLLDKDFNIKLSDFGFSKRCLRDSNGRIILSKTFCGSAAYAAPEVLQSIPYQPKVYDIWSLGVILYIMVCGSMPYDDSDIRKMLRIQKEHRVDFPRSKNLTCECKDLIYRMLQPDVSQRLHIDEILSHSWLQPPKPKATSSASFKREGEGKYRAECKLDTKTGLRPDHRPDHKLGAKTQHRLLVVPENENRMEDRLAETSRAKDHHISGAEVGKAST
Chain of GSK3A (human) (P49840 whole entry, looked up): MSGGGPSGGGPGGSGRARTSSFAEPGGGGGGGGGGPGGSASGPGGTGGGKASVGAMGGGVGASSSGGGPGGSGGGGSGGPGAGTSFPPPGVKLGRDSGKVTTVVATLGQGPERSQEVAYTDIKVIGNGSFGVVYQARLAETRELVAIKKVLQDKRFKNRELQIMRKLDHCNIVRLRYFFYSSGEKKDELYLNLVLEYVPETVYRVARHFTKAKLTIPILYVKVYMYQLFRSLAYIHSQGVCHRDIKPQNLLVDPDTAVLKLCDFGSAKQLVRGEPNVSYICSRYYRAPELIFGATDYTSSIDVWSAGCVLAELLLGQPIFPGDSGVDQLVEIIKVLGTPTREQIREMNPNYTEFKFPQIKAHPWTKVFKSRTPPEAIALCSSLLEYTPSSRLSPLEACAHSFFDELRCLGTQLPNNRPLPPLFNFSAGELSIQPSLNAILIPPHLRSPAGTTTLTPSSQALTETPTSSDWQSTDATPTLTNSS
Chain of MAP2K2 (human) (P36507 whole entry, looked up): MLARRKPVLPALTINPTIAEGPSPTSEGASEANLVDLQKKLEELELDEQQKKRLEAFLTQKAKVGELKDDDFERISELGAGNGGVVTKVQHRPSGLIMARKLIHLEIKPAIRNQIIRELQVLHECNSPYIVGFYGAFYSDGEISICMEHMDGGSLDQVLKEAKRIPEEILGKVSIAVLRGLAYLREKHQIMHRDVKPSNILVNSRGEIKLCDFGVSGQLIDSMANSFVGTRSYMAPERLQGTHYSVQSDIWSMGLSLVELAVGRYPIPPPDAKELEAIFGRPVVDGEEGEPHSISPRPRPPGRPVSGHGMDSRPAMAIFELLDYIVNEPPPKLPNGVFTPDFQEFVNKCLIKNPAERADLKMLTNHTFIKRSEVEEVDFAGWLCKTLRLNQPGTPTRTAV
Chain of EPHA4 (human) (P54764 whole entry, looked up): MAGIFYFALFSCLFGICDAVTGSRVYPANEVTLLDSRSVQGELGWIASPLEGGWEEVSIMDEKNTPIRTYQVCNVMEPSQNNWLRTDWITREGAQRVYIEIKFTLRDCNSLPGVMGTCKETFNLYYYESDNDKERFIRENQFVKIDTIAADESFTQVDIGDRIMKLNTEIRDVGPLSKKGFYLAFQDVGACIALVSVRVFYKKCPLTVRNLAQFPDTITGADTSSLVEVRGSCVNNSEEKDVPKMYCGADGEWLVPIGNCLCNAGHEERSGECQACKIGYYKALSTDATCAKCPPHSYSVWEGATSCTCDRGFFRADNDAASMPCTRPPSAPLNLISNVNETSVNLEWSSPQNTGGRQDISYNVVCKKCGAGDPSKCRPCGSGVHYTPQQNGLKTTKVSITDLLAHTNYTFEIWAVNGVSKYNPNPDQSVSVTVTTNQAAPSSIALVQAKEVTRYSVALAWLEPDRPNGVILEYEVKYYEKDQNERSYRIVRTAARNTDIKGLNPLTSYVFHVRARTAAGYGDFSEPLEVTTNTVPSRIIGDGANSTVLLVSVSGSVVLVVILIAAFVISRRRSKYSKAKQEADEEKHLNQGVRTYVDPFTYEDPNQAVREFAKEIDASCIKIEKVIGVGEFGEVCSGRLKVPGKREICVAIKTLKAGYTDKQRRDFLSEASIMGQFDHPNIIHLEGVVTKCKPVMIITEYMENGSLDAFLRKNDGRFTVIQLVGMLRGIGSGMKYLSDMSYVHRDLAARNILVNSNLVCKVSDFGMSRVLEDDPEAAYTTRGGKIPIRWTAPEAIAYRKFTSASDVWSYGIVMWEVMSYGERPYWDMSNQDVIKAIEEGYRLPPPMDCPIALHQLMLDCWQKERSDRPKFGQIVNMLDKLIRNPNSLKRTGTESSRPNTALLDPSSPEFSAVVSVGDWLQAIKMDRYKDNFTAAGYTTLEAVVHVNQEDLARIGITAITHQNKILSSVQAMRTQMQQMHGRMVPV
Chain of MAP4K5 (human) (Q9Y4K4 whole entry, looked up): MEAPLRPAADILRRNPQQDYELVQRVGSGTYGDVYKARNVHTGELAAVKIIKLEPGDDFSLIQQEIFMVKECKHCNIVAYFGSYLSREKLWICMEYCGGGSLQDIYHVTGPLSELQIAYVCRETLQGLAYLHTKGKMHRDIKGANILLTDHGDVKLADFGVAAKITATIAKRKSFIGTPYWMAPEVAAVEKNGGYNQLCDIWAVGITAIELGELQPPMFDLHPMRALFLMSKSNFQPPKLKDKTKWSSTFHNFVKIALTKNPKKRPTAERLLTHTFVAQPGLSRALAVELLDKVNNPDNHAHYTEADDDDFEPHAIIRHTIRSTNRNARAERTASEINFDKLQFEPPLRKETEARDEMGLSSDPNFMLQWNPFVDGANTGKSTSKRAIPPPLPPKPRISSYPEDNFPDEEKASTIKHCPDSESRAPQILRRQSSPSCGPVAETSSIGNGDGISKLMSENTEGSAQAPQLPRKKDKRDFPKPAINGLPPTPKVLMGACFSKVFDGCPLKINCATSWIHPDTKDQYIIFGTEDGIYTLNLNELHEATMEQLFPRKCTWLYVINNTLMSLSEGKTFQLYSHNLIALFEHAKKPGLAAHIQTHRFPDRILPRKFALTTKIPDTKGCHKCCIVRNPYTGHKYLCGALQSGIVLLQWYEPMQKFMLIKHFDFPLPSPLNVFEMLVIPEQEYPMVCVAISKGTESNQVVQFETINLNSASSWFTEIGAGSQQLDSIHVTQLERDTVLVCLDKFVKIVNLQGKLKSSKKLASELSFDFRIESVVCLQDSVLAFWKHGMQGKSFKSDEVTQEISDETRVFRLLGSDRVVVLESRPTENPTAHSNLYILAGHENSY

Structure (SMILES): O=C(Nc1cccc(Nc2nccc(Nc3cccc(C(F)(F)F)c3)n2)c1)C1CC1
- residual activity (CAMK1G (human)): 98.8%
- residual activity (RPS6KA5 KD2 (human)): 101%
- residual activity (CSF1R (human)): 63.1%
- residual activity (PLK2 (human)): 99.5%
- residual activity (HIPK1 (human)): 98.7%
- residual activity (MAP4K5 (human)): 94.9%
- residual activity (CLK1 (human)): 102%
- residual activity (FYN (human)): 54.1%
- residual activity (MERTK (human)): 90.1%
- residual activity (CAMK2G (human)): 108%
- residual activity (FGFR2 (human)): 103%
- residual activity (GSK3A (human)): 95%
- residual activity (CDK6 CCND1 (human)): 93.4%
- residual activity (CDK7 CCNH MNAT1 (human)): 92.6%
- residual activity (CSNK1A1 (human)): 95.8%
- residual activity (DYRK1A (human)): 107%
- residual activity (SRC (human)): 64.5%
- residual activity (ABL1 (human)): 94.9%
- residual activity (RPS6KA4 KD2 (human)): 104%
- residual activity (SRMS (human)): 95.5%
- residual activity (ACVRL1 (human)): 84.6%
- residual activity (TSSK2 (human)): 97.1%
- residual activity (MAP3K10 (human)): 96.4%
- residual activity (NEK11 (human)): 102%
- residual activity (CDK6 CCND3 (human)): 98.5%
- residual activity (PTK6 (human)): 72.3%
- residual activity (WNK2 (human)): 122%
- residual activity (CDK9 CCNK (human)): 107%
- residual activity (CAMK2D (human)): 93.5%
- residual activity (MAP2K2 (human)): 89.2%
- residual activity (PTK2B (human)): 90.9%
- residual activity (TAOK2 (human)): 92.4%
- residual activity (EPHB4 (human)): 91.3%
- residual activity (TEC (human)): 158%
- residual activity (EPHA4 (human)): 81%
- residual activity (CDK3 CCNE1 (human)): 98.1%
- residual activity (RPS6KA2 KD1 KD2 (human)): 101%
- residual activity (BRSK2 (human)): 89.3%
- residual activity (SLK (human)): 92.9%
- residual activity (NEK4 (human)): 83.4%
- residual activity (MAP3K2 (human)): 91.6%

Structure (SMILES): COc1cc2ncnc(Nc3cccc(Cl)c3)c2cc1OC
- residual activity (CAMK1G (human)): 93.6%
- residual activity (RPS6KA5 KD2 (human)): 97.8%
- residual activity (CSF1R (human)): 98.2%
- residual activity (PLK2 (human)): 102%
- residual activity (HIPK1 (human)): 98.7%
- residual activity (MAP4K5 (human)): 59.5%
- residual activity (CLK1 (human)): 103%
- residual activity (FYN (human)): 85.7%
- residual activity (MERTK (human)): 76.9%
- residual activity (CAMK2G (human)): 97.3%
- residual activity (FGFR2 (human)): 97.5%
- residual activity (GSK3A (human)): 104%
- residual activity (CDK6 CCND1 (human)): 92.5%
- residual activity (CDK7 CCNH MNAT1 (human)): 99.9%
- residual activity (CSNK1A1 (human)): 92.5%
- residual activity (DYRK1A (human)): 90.7%
- residual activity (SRC (human)): 71.9%
- residual activity (ABL1 (human)): 61.8%
- residual activity (RPS6KA4 KD2 (human)): 94.5%
- residual activity (SRMS (human)): 93.8%
- residual activity (ACVRL1 (human)): 96.4%
- residual activity (TSSK2 (human)): 94.8%
- residual activity (MAP3K10 (human)): 101%
- residual activity (NEK11 (human)): 96.9%
- residual activity (CDK6 CCND3 (human)): 90.1%
- residual activity (PTK6 (human)): 39%
- residual activity (WNK2 (human)): 98.6%
- residual activity (CDK9 CCNK (human)): 106%
- residual activity (CAMK2D (human)): 96.1%
- residual activity (MAP2K2 (human)): 102%
- residual activity (PTK2B (human)): 85.3%
- residual activity (TAOK2 (human)): 96.1%
- residual activity (EPHB4 (human)): 59.7%
- residual activity (TEC (human)): 126%
- residual activity (EPHA4 (human)): 81.7%
- residual activity (CDK3 CCNE1 (human)): 95.2%
- residual activity (RPS6KA2 KD1 KD2 (human)): 85.5%
- residual activity (BRSK2 (human)): 96.7%
- residual activity (SLK (human)): 64.6%
- residual activity (NEK4 (human)): 87.5%
- residual activity (MAP3K2 (human)): 98.2%

Structure (SMILES): CC#CC(=O)Nc1cc2c(Nc3ccc(F)c(Cl)c3)ncnc2cn1
- residual activity (CAMK1G (human)): 99.2%
- residual activity (RPS6KA5 KD2 (human)): 103%
- residual activity (CSF1R (human)): 101%
- residual activity (PLK2 (human)): 103%
- residual activity (HIPK1 (human)): 108%
- residual activity (MAP4K5 (human)): 100%
- residual activity (CLK1 (human)): 82.5%
- residual activity (FYN (human)): 95.8%
- residual activity (MERTK (human)): 84.5%
- residual activity (CAMK2G (human)): 97.7%
- residual activity (FGFR2 (human)): 101%
- residual activity (GSK3A (human)): 104%
- residual activity (CDK6 CCND1 (human)): 99%
- residual activity (CDK7 CCNH MNAT1 (human)): 101%
- residual activity (CSNK1A1 (human)): 107%
- residual activity (DYRK1A (human)): 96.4%
- residual activity (SRC (human)): 97.7%
- residual activity (ABL1 (human)): 97.8%
- residual activity (RPS6KA4 KD2 (human)): 100%
- residual activity (SRMS (human)): 96.1%
- residual activity (ACVRL1 (human)): 101%
- residual activity (TSSK2 (human)): 100%
- residual activity (MAP3K10 (human)): 98.9%
- residual activity (NEK11 (human)): 86.6%
- residual activity (CDK6 CCND3 (human)): 103%
- residual activity (PTK6 (human)): 56.8%
- residual activity (WNK2 (human)): 107%
- residual activity (CDK9 CCNK (human)): 98.4%
- residual activity (CAMK2D (human)): 100%
- residual activity (MAP2K2 (human)): 106%
- residual activity (PTK2B (human)): 94.1%
- residual activity (TAOK2 (human)): 106%
- residual activity (EPHB4 (human)): 83.4%
- residual activity (TEC (human)): 52.1%
- residual activity (EPHA4 (human)): 94.6%
- residual activity (CDK3 CCNE1 (human)): 96.8%
- residual activity (RPS6KA2 KD1 KD2 (human)): 105%
- residual activity (BRSK2 (human)): 93.3%
- residual activity (SLK (human)): 93.6%
- residual activity (NEK4 (human)): 85.8%
- residual activity (MAP3K2 (human)): 107%

Structure (SMILES): CNc1cc2c(Nc3cccc(Br)c3)ncnc2cn1
- residual activity (CAMK1G (human)): 97.9%
- residual activity (RPS6KA5 KD2 (human)): 92.3%
- residual activity (CSF1R (human)): 100%
- residual activity (PLK2 (human)): 97.5%
- residual activity (HIPK1 (human)): 96.5%
- residual activity (MAP4K5 (human)): 77.1%
- residual activity (CLK1 (human)): 106%
- residual activity (FYN (human)): 91.7%
- residual activity (MERTK (human)): 87.5%
- residual activity (CAMK2G (human)): 105%
- residual activity (FGFR2 (human)): 96.3%
- residual activity (GSK3A (human)): 95.9%
- residual activity (CDK6 CCND1 (human)): 82.2%
- residual activity (CDK7 CCNH MNAT1 (human)): 102%
- residual activity (CSNK1A1 (human)): 125%
- residual activity (DYRK1A (human)): 95.6%
- residual activity (SRC (human)): 94.6%
- residual activity (ABL1 (human)): 89.8%
- residual activity (RPS6KA4 KD2 (human)): 109%
- residual activity (SRMS (human)): 100%
- residual activity (ACVRL1 (human)): 90.6%
- residual activity (TSSK2 (human)): 87.2%
- residual activity (MAP3K10 (human)): 90.1%
- residual activity (NEK11 (human)): 106%
- residual activity (CDK6 CCND3 (human)): 90.8%
- residual activity (PTK6 (human)): 54.4%
- residual activity (WNK2 (human)): 114%
- residual activity (CDK9 CCNK (human)): 105%
- residual activity (CAMK2D (human)): 97.9%
- residual activity (MAP2K2 (human)): 90.4%
- residual activity (PTK2B (human)): 94.5%
- residual activity (TAOK2 (human)): 95.3%
- residual activity (EPHB4 (human)): 99.6%
- residual activity (TEC (human)): 109%
- residual activity (EPHA4 (human)): 94.2%
- residual activity (CDK3 CCNE1 (human)): 80.2%
- residual activity (RPS6KA2 KD1 KD2 (human)): 83.5%
- residual activity (BRSK2 (human)): 90.9%
- residual activity (SLK (human)): 63%
- residual activity (NEK4 (human)): 94.9%
- residual activity (MAP3K2 (human)): 74.9%
